How the values were obtained:
PLC/PRF/5 [1] = assay: CellTiter-Glo IG50, Example 8, PLC/PRF/5; format: cell-based; conditions: Homo sapiens, PLC/PRF/5, 72 hours
Method: (§1) Various pancreatic, liver, colon, breast, and stomach cancer cell lines were exposed to the NF-κB inhibitors of the present invention, including, for example, IT-839, IT-843, IT-848, and IT-878, and assessed for IG50 in the CellTiter Glo 2.0 assay.
(§2) The cells were cultured in an atmosphere of 37° C., 5% CO2 and 95% humidity. All culture media and FBS were purchased from GIBCO, Hyclone or Sigma, USA. The media used for cell culture is described in the table below.
(§3) The cells were harvested during the logarithmic growth period and counted. Cell concentrations were adjusted to the appropriate number in appropriate medium and 90 μl cell suspensions were added to 96-well plates. When cells were added, the plates were shaken gently to distribute the cells evenly. Cells were incubated at 37° C. and 5% CO2.
(§4) 3× serial dilutions of test compound stock solutions with respective solvents were prepared. The stock solutions were diluted with culture medium to generate 10× working solutions of the test compounds. 10 μl of the 10× test compound solutions were added to each well in triplicate for each concentration. Plates were incubated for 72 hours in a humidified incubator at 37° C. and 5% CO2.
(§5) CellTiter-Glo (CTG) solution was thawed and equilibrated to room temperature. 50 μl of CTG were added to each well and the contents were mixed for 2 minutes on a plate shaker. Cells were incubated for 10 minutes before luminescence signal was recorded using Envision.
(§6) Cell viability was plotted with GraphPad Prism version 5 and the IG50 was calculated for each cell line. The graphical curves were fitted using a nonlinear regression model with a sigmoidal dose response. IG50 is the concentration of test drug where 100×T/C=50 (the optical density of the test well after a 3-day period of exposure to test drug is T; the control optical density is C).

HepG2 [2] = assay: CellTiter-Glo IG50, Example 8, HepG2; format: cell-based; conditions: Homo sapiens, HepG2, 72 hours
Method: as §1, §2, §3, §4, §5, §6

Hep3B [3] = assay: CellTiter-Glo IG50, Example 8, Hep3B; format: cell-based; conditions: Homo sapiens, 72 hours
Method: as §1, §2, §3, §4, §5, §6

HepG2 [4] = assay: CellTiter-Glo IG50, Example 9 HCC panel, HepG2; format: cell-based; conditions: Homo sapiens, HepG2, 72 hours
Method: as §3, §4, §5, §6, §2
(§7) Following the cell culture protocol and data analysis methods described in Example 8, the following IG50 results (in μM) were observed: […]

Hep3B [5] = assay: CellTiter-Glo IG50, Example 9 HCC panel, Hep3B; format: cell-based; conditions: Homo sapiens, 72 hours
Method: as §3, §4, §5, §6, §2, §7

PLC/PRF/5 [6] = assay: CellTiter-Glo IG50, Example 9 HCC panel, PLC/PRF/5; format: cell-based; conditions: Homo sapiens, PLC/PRF/5, 72 hours
Method: as §3, §4, §5, §6, §2, §7

HUH7 [7] = assay: CellTiter-Glo IG50, Example 9 HCC panel, HUH7; format: cell-based; conditions: Homo sapiens, Huh-7, HUH7, 72 hours
Method: as §3, §4, §5, §6, §2, §7

JHH5 [8] = assay: CellTiter-Glo IG50, Example 9 HCC panel, JHH5; format: cell-based; conditions: JHH5, 72 hours
Method: as §3, §4, §5, §6, §2, §7

PBMC [9] = assay: CellTiter-Glo IG50, Example 9 HCC panel, PBMC; format: cell-based; conditions: 72 hours
Method: as §3, §4, §5, §6, §2, §7

SNU878 [10] = assay: CellTiter-Glo IG50, Example 9 HCC panel, SNU878; format: cell-based; conditions: SNU878, 72 hours
Method: as §3, §4, §5, §6, §2, §7

HepG2 [11] = assay: CellTiter-Glo IG50, Example 10 HCC panel, HepG2; format: cell-based; conditions: Homo sapiens, HepG2, 72 hours
Method: as §3, §4, §5, §6, §2
(§8) Following the cell culture protocol and data analysis method described in Example 8, the following IG50 results (in μM) were observed: […]

Hep3B [12] = assay: CellTiter-Glo IG50, Example 10 HCC panel, Hep3B; format: cell-based; conditions: Homo sapiens, 72 hours
Method: as §3, §4, §5, §6, §2, §8

PLC/PRF/5 [13] = assay: CellTiter-Glo IG50, Example 10 HCC panel, PLC/PRF/5; format: cell-based; conditions: Homo sapiens, PLC/PRF/5, 72 hours
Method: as §3, §4, §5, §6, §2, §8

HUH7 [14] = assay: CellTiter-Glo IG50, Example 10 HCC panel, HUH7; format: cell-based; conditions: Homo sapiens, Huh-7, HUH7, 72 hours
Method: as §3, §4, §5, §6, §2, §8

JHH5 [15] = assay: CellTiter-Glo IG50, Example 10 HCC panel, JHH5; format: cell-based; conditions: JHH5, 72 hours
Method: as §3, §4, §5, §6, §2, §8

PBMC [16] = assay: CellTiter-Glo IG50, Example 10 HCC panel, PBMC; format: cell-based; conditions: 72 hours
Method: as §3, §4, §5, §6, §2, §8

SNU878 [17] = assay: CellTiter-Glo IG50, Example 10 HCC panel, SNU878; format: cell-based; conditions: SNU878, 72 hours
Method: as §3, §4, §5, §6, §2, §8

c-Rel protein = biological target: T1, c-Rel protein (Homo sapiens, UniProt Q04864); assay: Electrophoretic Mobility Shift Assay (EMSA), c-Rel binding to CD28RE oligonucleotide; conditions: 10 nM c-Rel protein
T1 sequence (Q04864 1-619): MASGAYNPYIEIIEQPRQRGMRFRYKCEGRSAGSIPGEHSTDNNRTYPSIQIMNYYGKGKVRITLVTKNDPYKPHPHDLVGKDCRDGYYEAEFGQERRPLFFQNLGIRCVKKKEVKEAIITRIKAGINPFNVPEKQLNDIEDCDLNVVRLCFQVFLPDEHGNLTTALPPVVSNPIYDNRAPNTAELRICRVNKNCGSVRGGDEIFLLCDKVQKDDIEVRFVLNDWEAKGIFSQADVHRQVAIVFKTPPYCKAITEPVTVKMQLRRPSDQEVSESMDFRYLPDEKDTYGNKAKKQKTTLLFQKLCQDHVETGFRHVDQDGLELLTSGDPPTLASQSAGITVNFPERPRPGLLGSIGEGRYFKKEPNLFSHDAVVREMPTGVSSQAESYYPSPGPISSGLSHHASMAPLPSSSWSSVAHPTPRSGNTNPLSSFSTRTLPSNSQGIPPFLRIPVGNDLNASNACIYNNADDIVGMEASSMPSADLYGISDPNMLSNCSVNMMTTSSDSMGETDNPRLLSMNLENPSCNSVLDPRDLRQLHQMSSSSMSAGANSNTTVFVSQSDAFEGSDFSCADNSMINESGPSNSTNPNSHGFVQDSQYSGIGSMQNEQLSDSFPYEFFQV
Method: DNA binding reaction (20 μL) was carried out in 1×DNA Binding Buffer (10 mM Tris, 40 mM NaCl, 1 mM EDTA, 4% glycerol) with 10 nM c-Rel protein and 0.5 ng phosphor-labeled CD28RE oligonucleotide for 10 minutes at room temperature in 96-well plates. Test compounds, in serial dilutions, were added into each well, and further incubated for 15 minutes before loading onto native 5% polyacrylamide gel. Electrophoresis proceeded for 2.5 hours at 160V. Radioactive signals were quantified using Phospho-Imager. IC50 of compounds of example 1 to 75 were determined by quantifying the intensity of Rel/NF-κB inhibition in EMSA using phospho-imager. An example of EMSA data of the present invention is shown for compound 6 in FIG. 2.

NF-κB = NF-κB GFP assay in NFκB/Jurkat/GFP transcriptional reporter cells stimulated with TNF-α; format: cell-based; conditions: Homo sapiens, TNF-α 5 ng/ml, 24 hours, read-out: NF-KB GFP IC50
Method: NFκB/Jurkat/GFP transcriptional reporter cell line was obtained from SBI System Biosciences. NF-κB/Jurkat/GFP™ Reporter cells (5×10^5 cells) were plated at a concentration of 1 million cells/ml into each well of a 24-well plate. TNF-α (5 ng/ml) was added. Compounds were added via serial dilutions to corresponding wells. After 24 hours, 100 μl of the cells were transferred to a well of a Costar® UV plate (96 well, No lid, w/UV Transparent Flat Bottom, Corning, N.Y., Cat #3635) and the intensity of GFP fluorescence was measured (Excitation 485+/−20, Emission 528+/−20) in a Synergy™ HT Multi-Detection Microplate Reader (BioTech, Winooski, Vt.). The intensities of GFP measured were plotted against the […].

Capan-1 = assay: CellTiter-Glo IG50, Example 8, Capan-1; format: cell-based; conditions: Homo sapiens, Capan-1, 72 hours
Method: as §1, §2, §3, §4, §5, §6

PANC-1 = assay: CellTiter-Glo IG50, Example 8, PANC-1; format: cell-based; conditions: Homo sapiens, PANC-1, 72 hours
Method: as §1, §2, §3, §4, §5, §6

MIAPACA-2 = assay: CellTiter-Glo IG50, Example 8, MIAPACA-2; format: cell-based; conditions: Homo sapiens, MIA PaCa-2, MIAPACA-2, 72 hours
Method: as §1, §2, §3, §4, §5, §6

HCT116 = assay: CellTiter-Glo IG50, Example 8, HCT116; format: cell-based; conditions: Homo sapiens, HCT-116, HCT116, 72 hours
Method: as §1, §2, §3, §4, §5, §6

HT-29 = assay: CellTiter-Glo IG50, Example 8, HT-29; format: cell-based; conditions: Homo sapiens, HT-29, 72 hours
Method: as §1, §2, §3, §4, §5, §6

LoVo = assay: CellTiter-Glo IG50, Example 8, LoVo; format: cell-based; conditions: Homo sapiens, 72 hours
Method: as §1, §2, §3, §4, §5, §6

MCF-7 = assay: CellTiter-Glo IG50, Example 8, MCF-7; format: cell-based; conditions: Homo sapiens, MCF7, MCF-7, 72 hours
Method: as §1, §2, §3, §4, §5, §6

MDA-MB-231 = assay: CellTiter-Glo IG50, Example 8, MDA-MB-231; format: cell-based; conditions: Homo sapiens, MDA-MB-231, 72 hours
Method: as §1, §2, §3, §4, §5, §6

T47D = assay: CellTiter-Glo IG50, Example 8, T47D; format: cell-based; conditions: Homo sapiens, 72 hours
Method: as §1, §2, §3, §4, §5, §6

AGS = assay: CellTiter-Glo IG50, Example 8, AGS; format: cell-based; conditions: Homo sapiens, 72 hours
Method: as §1, §2, §3, §4, §5, §6

MKN45 = assay: CellTiter-Glo IG50, Example 8, MKN45; format: cell-based; conditions: Homo sapiens, MKN-45, MKN45, 72 hours
Method: as §1, §2, §3, §4, §5, §6

KATO III = assay: CellTiter-Glo IG50, Example 8, KATO III; format: cell-based; conditions: Homo sapiens, 72 hours
Method: as §1, §2, §3, §4, §5, §6

SMILES | IC50 (PLC/PRF/5 [1]) | IC50 (HepG2 [2]) | IC50 (Hep3B [3]) | IC50 (HepG2 [4]) | IC50 (Hep3B [5]) | IC50 (PLC/PRF/5 [6]) | IC50 (HUH7 [7]) | IC50 (JHH5 [8]) | IC50 (PBMC [9]) | IC50 (SNU878 [10]) | IC50 (HepG2 [11]) | IC50 (Hep3B [12]) | IC50 (PLC/PRF/5 [13]) | IC50 (HUH7 [14]) | IC50 (JHH5 [15]) | IC50 (PBMC [16]) | IC50 (SNU878 [17]) | IC50 (c-Rel protein) | IC50 (NF-κB) | further results
CNC(=O)c1cc(Oc2ccc(NC(=O)Nc3ccc(Cl)c(C(F)(F)F)c3)cc2)ccn1 [Sorafenib, sorafenib, reference compound] | 10.8 µM | 5.14 µM | 7.49 µM | 3.15 µM | 7.57 µM | 10.8 µM | 6.57 µM | 3.21 µM | 19.5 µM | 12.7 µM | 4.37 µM | 6.42 µM | 10.1 µM | 5.14 µM | 7.13 µM | 14.4 µM | 10.6 µM |  |  | 
O=C(O)CCCCOc1ccc2cc3c(=O)[nH]c(=O)nc-3oc2c1Cl [compound 54] |  |  |  |  |  |  |  |  |  |  |  |  |  |  |  |  |  | < 5 µM | < 20 µM | 
COc1cc(OC)c2cc3c(=O)[nH]c(=O)nc-3oc2c1 [compound 14, 6,8-dimethoxy-2H-chromeno[2,3-d]pyrimidine-2,4(3H)-dione] |  |  |  |  |  |  |  |  |  |  |  |  |  |  |  |  |  | < 1 µM | 8.2 µM | 
CCCCCCOc1ccc2cc3c(=O)[nH]c(=O)nc-3oc2c1Cl [IT-848] | > 16 µM | 6.7 µM | 2.43 µM | 5.84 µM | 3.51 µM | > 16 µM | 4.25 µM | 12.9 µM | 1.19 µM | 14.6 µM | 9.95 µM | 6.09 µM | > 16 µM | 7.72 µM | 13.4 µM | 3.63 µM | > 16 µM |  |  | IC50 (Capan-1): > 16 µM; IC50 (PANC-1): 9.88 µM; IC50 (MIAPACA-2): > 16 µM; IC50 (HCT116): > 16 µM; IC50 (HT-29): > 16 µM; IC50 (LoVo): 5.07 µM; IC50 (MCF-7): 5.19 µM; IC50 (MDA-MB-231): 2.35 µM; IC50 (T47D): 6.14 µM; IC50 (AGS): 7.67 µM; IC50 (MKN45): > 16 µM; IC50 (KATO III): > 16 µM
